# Results reported in patent US20120296403A1, “METHODS AND COMPOUNDS FOR MUSCLE GROWTH” (NOVARTIS AG, priority 2010, published 2012).
# Where a SMILES comes first, the peptide text is derived from it. The star is where a group is joined. Cbz = O=C(OCc1ccccc1)*
# B1: Fbxo40, endogenous in C2C12 myotubes (protein)
# chain: MGRARKPPPALHRHCEGCFNRHCHVPVEPSVSCLVISCHLLCGATFHMCKESEHTLLCPLEQVPCLNSEYGCPLSMARHKLAKHLQVCPASVVCCSMEWIRWPNVDSETFLHENIMKETPSEECLDTALALQDQKVLFRSLKMVELFPETRDATEEEPDMNGDTSWEETGGAVGGVDARLAPNSCLPATSRQMMELSQEERDALAKTKEGMDLDKFGKWESMFSKEHAASVLTGSLGKSEDKNGDVAGKEQCSSNVRIGDAEGSAERRGPQESQKSQELPATMEMTGLAPWQDGVLERLKTAVDAKDYNMYLVHNGRMLIHFGQMPACTPKERDFVYGNLEAQEVKTVYTFKIPVSYCGKRARLGDAMLKCRPSEHKAVDTSDLGISVEDLPKSDLIKTTLQCALERELKGHVISESRSIDGLFMDLATQTYNFEPEQFSSETVLADLLGTAQPGGLHVELHSECVTRRHNKSSSAFTFTCNKFFRRDEFPLHFKNVHTDIQSSLDGWFQHRCPLAYLGCTFVQNHFRPPGQKAKVIYSQELKTFAIKPEVAPELSEKWKSDHLSGRDGKSLNSLTSLPLEVLQYIAGFLDSISLSQLSQVSVLMRNICATLLQERGMVLSQWKKKRYSHGGTSWKVHNQIWQFSSLFSKINSWEFNDVTSMSEHLKTCPFNIVERKTDPIRLTSMCQPQEKARESLVSTFRARPRGRHF
# Tests used:
# [1] = tested on: IRS1; assay: IRS1 degradation / protein stability in C2C12 myotubes (Western blotting); type: cell-based, mouse; details: for IRS1 degradation upon treatment: increasing concentration, along with protein synthesis inhibitor Emetin, dose-dependent
# Experimental: Differentiated C2C12 myotubes are treated with increasing concentration of IGF1 or dexmethasome (DEX), a glucocorticoid that can lead to muscle atrophy, along with protein synthesis inhibitor Emetin (Eme). […] In C2C12 myotubes, IRS1 is rapidly degraded upon IGF1 treatment with a half-life of around 2 hours (FIGS. 4B and 4E).
# Cells are washed twice with warm serum free DMEM and starved in serum free DMEM for 4 hours with an exchange of fresh medium in the middle. Then the signaling inhibitors are added to pretreat cells for 30 min before incubation with freshly prepared inhibitors with 10 nM IGF1 (the R3 form, Sigma, St. Louis, Mo.) or 10 μM Emetin (Sigma, St. Louis, Mo.) or 20 μM MG132 (Alexis Biochemicals, Carlsbad, Calif.) as specified for an additional 5 hours. Cells are rinsed two times with ice-cold PBS and harvested in ice-cold RIPA buffer with 10 μM MG132 and protease/phosphatase inhibitors tablets (Roche, Basel, Switzerland). Cell lysates are rotated at 4° C. for at least one hour, and spun for 10 min at 16,000×g in a micro centrifuge at 4° C. Protein concentrations of the supernatants are determined by BCA Protein Assay Kit (Pierce/Thermo Fisher Scientific, Rockford, Ill.). Equal amounts of proteins (10-20 μg) are loaded per lane on 4-12% Bis-Tris gels (Invitrogen, Carlsbad, Calif.) and transferred onto PVDF membranes (Millipore, Billerica, Mass.). Membranes are blocked in 10% (w/v) milk in TBST for 1 hour at room temperature, followed by incubation with primary antibody in TBST with 5% BSA at 4° C. for overnight. Secondary antibodies are incubated with membranes at room temperature for 1 hour. Immunoreactivity is detected by ECL and exposed to film or Kodak Image Station 4000R (Eastman Kodak Company, Rochester, N.Y.). Densitometry is analyzed using Kodak Molecular Imaging software, version 4.0.
# Cells are washed twice with warm serum-free DMEM and starved in serum-free DMEM for 4 hours with an exchange of fresh medium in the middle. At time zero, 10 μM Emetin, or 100 μg/ml of cycloheximide, or 10 nM IGF1, or 20 μM MG132 are added to cells as specified. At the indicated time intervals, cells are rinsed twice with PBS and harvested in ice-cold RIPA buffer with 10 μM MG132 and protease/phosphatase inhibitors. Cell lysates are rotated at 4° C. for at least one hour, and spun for 10 min at 16,000×g in a micro centrifuge at 4° C. The supernatants are analyzed by western blotting.
# [2] = tested on: Fbxo40; assay: Fbxo40 protein level after MG132 incubation (co-immunoprecipitation experiment, C2C12 myotubes); type: cell-based, mouse; details: 20 μM MG132
# Source text: Ye et al. 2007 Gene 404: 53-60. We survey the FirstChoice Human Total RNA Panel by quantitative real-time PCR and find that Fbxo40 is highly expressed in heart and muscle (FIG. 3). Furthermore, its mRNA (FIG. 6B) and protein (FIG. 8A) is induced during differentiation of C2C12 cells, which coincides with the accelerated degradation of IRS1 in C2C12 myotubes. IRS1 and Rbx1 can be co-immunoprecipitated with antibody against Fbxo40 (FIG. 6C). […] We also use this immunoprecipitated Fbxo40-Rbx1 complex to ubiquitinate recombinant IRS1 in-vitro and find that IRS1 can be ubiquitinated in a time-dependent manner (FIG. 6D). In this experiment, we include six control reactions. The first four controls are the reactions carried out at 30° C. for 90 min with the omission of E1, or E2 (UbCH5c), or His6-Biotin-N-terminal Ubiquitin, or recombinant IRS1 respectively. The last two controls are full reactions carried out without immunoprecipitated Fbxo40 (with beads incubated with lysate without IgG or with nonspecific rabbit IgG). Poly-ubiquitinated IRS1 can be observed in full reactions after 60 min or 90 min at 30° C.
# Alternatively, in the experiment of IRS1 and Rbx1 Co-Immunoprecipitation with Fbxo40, day 3 C2C12 myotubes are starved and treated with 10 nM IGF1 or 20 μM MG132 as described above. […]
# [3] = tested on: IRS1; assay: In-vivo ubiquitination assay and immunoprecipitation of IRS1 in C2C12 myotubes; type: cell-based, mouse; details: C2C12 myotubes overexpressing his-myc tagged ubiquitin, 10 nM IGF1
# Experimental: Since ubiquitinated proteins are rapidly degraded in cells, in order to detect ubiquitinated IRS1 protein in the experiment shown in FIG. 4C, C2C12 myotubes are infected with an adenovirus overexpressing his-myc tagged ubiquitin and incubated with IGF1 along with MG132 or an isopeptidase inhibitor G5. IRS1 is immunoprecipitated with the rabbit polyclonal anti-IRS1 antibody (lanes 6, 8, 10, 12) or non-specific IgG (lanes 5, 7, 9, 11) as control. Poly-ubiquitination is detected with monoclonal anti-myc antibody against the his-myc tagged ubiquitin and is found to be specifically immunoprecipitated with IRS1 (FIG. 4C, upper panel). […] Note that in the upper panel of FIG. 4C, G5 treatment also causes an upper shift of his-myc tagged ubiquitin in comparison to MG132 treatment alone (compare lane 10 to lane 8). In agreement with the induced degradation of IRS1 upon IGF1 treatment, poly-ubiquitinated IRS1 also increases with IGF1 treatment (FIG. 4D, upper panel) despite that the total amount of ubiquitinated proteins in cells even decreased a little (FIG. 4D, lower panel).
# A His-myc-ubiquitin adenoviral expression constructs are sent to Welgen Inc. (Worcester, Mass.) for production and purification. […] Protein concentration in the supernatant is determined by BCA analysis. […] An aliquot (20 μg) of the lysate is analyzed by Western blotting along with 100% of the eluate.
# [4] = molecular target: purified recombinant IRS1 protein (Millipore)
# Sequence of purified recombinant IRS1 protein (Millipore) (P35568 whole entry): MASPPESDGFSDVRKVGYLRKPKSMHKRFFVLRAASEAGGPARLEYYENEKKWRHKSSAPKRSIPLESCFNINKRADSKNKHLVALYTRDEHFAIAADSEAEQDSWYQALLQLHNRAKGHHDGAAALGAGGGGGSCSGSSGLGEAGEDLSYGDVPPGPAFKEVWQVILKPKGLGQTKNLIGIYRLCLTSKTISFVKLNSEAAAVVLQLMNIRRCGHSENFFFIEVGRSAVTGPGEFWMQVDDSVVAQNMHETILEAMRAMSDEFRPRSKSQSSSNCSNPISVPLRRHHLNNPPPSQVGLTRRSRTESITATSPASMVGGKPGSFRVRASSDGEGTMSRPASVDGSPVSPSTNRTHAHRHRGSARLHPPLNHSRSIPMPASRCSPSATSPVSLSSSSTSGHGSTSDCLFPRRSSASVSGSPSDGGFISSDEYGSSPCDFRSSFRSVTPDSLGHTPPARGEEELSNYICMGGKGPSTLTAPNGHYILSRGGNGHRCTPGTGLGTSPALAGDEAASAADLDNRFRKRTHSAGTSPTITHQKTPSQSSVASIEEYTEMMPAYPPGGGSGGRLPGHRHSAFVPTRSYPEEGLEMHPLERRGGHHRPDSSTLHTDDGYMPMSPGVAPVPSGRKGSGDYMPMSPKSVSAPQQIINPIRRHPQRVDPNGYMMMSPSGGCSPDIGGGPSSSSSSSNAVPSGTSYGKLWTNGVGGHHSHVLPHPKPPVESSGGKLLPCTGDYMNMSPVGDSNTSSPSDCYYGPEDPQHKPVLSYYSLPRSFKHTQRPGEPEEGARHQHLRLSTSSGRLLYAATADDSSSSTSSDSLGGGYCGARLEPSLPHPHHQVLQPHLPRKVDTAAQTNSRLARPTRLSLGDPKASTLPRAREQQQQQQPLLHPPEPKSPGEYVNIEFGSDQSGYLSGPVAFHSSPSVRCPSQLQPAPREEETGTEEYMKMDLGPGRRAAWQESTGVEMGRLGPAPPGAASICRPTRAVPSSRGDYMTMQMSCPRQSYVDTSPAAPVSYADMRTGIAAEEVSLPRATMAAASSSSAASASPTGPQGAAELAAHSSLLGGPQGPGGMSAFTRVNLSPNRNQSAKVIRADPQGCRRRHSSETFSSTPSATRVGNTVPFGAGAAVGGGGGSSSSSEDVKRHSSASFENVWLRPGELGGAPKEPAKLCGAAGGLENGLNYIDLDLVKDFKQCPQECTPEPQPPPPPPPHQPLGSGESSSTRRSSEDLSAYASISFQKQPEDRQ
molecule,measurement,setting,value
"CC(C)C[C@@H](C=O)NC(=O)[C@H](CC(C)C)NC(=O)[C@H](CC(C)C)NC(=O)OCc1ccccc1 [MG132, reference compound] (Cbz-Leu-Leu-Leu-aldehyde)",stabilization of IRS1 protein,"[1]; IGF1 treatment, 20 μM MG132",substantially stabilizes
same,Fbxo40 protein level after incubation with MG132,[2],increases
"C[C@@H]1C[C@H]2[C@@H]3CCC4=CC(=O)C=C[C@]4(C)[C@@]3(F)[C@@H](O)C[C@]2(C)[C@@]1(O)C(=O)CO [DEX, dexmethasome, reference compound]",IRS1 degradation upon treatment,[1],not
insulin-like growth factor-1 (IGF1),half-life of IRS1 upon IGF1 treatment,[1]; 10 nM IGF1,around 2 hours
same,protein level of IRS1 in cells treated with IGF1 alone,"[1]; IGF1 alone (no Emetin), slower kinetics",decreases
same,IRS1 degradation upon treatment,[1],IRS1 is degraded
same,poly-ubiquitinated IRS1,[3],increases
B1,in-vitro ubiquitination of recombinant IRS1 (streptavidin-HRP blot of His6-Biotin-ubiquitin),[4],IRS1 can be ubiquitinated in a time-dependent manner
